For this test, the target named is T1, CSNK1A1 (CK1 alpha 1) (Homo sapiens, UniProt P48729).
T1 construct: purchased Thermo Fisher Scientific (Life Technologies) SelectScreen
The test is described as follows: SelectScreen Z'LYTE. In kind it is biochemical. Summed up: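 Compound tested in SelectScreen activity assays, Z'LYTE for CSF1R, CDK1/cyclin B and MAP2K6 and Adapta for CAMK1. ATP for CAMK1 was listed as 10, and Km app was used for CSF1R. Results are expressed in percent.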

Here are results for one compound from publication PMC6934184, “Selective DNA-PKcs inhibition extends the therapeutic index of localized radiotherapy and chemotherapy” (The Journal of Clinical Investigation, 2019).

Structures are written as SMILES.

The inhibition is how much of the control response was suppressed. The low end stands for little suppression, the high end for strong suppression.

T1 sequence (P48729 whole entry): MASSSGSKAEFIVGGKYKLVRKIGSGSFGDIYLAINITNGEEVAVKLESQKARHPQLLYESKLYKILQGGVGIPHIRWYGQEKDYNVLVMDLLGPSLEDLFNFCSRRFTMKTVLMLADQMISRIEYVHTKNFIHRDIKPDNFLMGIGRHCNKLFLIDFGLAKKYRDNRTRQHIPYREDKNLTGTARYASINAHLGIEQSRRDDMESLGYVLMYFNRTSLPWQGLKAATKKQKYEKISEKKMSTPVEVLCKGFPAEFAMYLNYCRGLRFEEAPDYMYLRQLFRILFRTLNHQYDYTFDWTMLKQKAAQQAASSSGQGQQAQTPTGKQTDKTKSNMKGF

With `CN(C(=O)CN1CCOCC1)c1ccc2sc3c(-c4cccc5c(=O)cc(N6CC7CCC(C6)O7)oc45)cccc3c2c1` [NU5455], at 1 µM the inhibition was 0.3%.
